Assay results from article PMC10892041, “Vanadium Complexes with Thioanilide Derivatives of Amino Acids: Inhibition of Human Phosphatases and Specificity in Various Cell Models of Metabolic Disturbances” (Pharmaceuticals, 2024).
Read-outs that look alike come from different tables or passages of the source.

Legend:
LAR = molecular target: T1, LAR (Homo sapiens, UniProt P10586); test: Inhibition of human recombinant tyrosine phosphatase LAR (DiFMUP fluorescence); type: biochemical; details: for Inhibition of LAR, percentage of inhibition of the control: 1 µM, control solvent only, SD did not exceed 6%
T1 sequence (P10586 1352-1607 limits assumed): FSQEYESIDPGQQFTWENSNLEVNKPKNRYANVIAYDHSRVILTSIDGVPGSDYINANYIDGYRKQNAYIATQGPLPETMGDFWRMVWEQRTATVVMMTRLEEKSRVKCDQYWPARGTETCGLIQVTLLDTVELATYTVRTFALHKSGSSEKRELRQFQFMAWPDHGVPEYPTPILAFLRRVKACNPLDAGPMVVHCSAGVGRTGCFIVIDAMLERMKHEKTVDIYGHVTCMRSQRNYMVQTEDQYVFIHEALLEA
Method: (§1) To determine the ability of the tested compounds for inhibition tyrosine phosphatases, human recombinant proteins were used (Sigma-Aldrich). The reactions were performed in black opaque 384-well microplates (PerkinElmer, Waltham, MA, USA). An equal volume of phosphatase solution in a reaction buffer (25 mM of 3-(N-morpholino)propanesulfonic acid (MOPS), 50 mM NaCl, 1 mM dithiothreitol (DTT), and 0.05% Tween-20 (pH 7.0)) was added to the solution of the tested compound on microplate. These solutions were dispensed using an automated injector. The following final concentrations of the tested phosphatases were used: PTP1B 50 ng/mL, SHP1 400 ng/mL, SHP2 50 ng/mL, LAR 5 ng/mL, and PTPRA 100 ng/mL. After 10 min, a solution of phosphate 6,8-difluoro-4-methyl (DiFMUP; Thermo Fisher Scientific) was added until its final concentration was 0.1 mM. Samples were incubated for 20 miN at 23 °C, and then the measurements of fluorescence intensity (excitation 355 and emission […]) were performed on a multifunctional plate reader POLARstar Omega (BMG Labtech, Ortenberg, Germany). Assays were performed in triplicate. For the screening assays, the final concentration of the tested compounds was 1 µM. The results were expressed as percent inhibition of untreated control (enzyme with vehicle only) for the screening tests. […] IC50 were calculated using GraphPad Prism version 6.0 software (GraphPad Software, Boston, MA, USA).

SHP2 = molecular target: T2, SHP2 (Homo sapiens, UniProt Q06124); test: Inhibition of human recombinant tyrosine phosphatase SHP2 (DiFMUP fluorescence); type: biochemical; details: for Inhibition of SHP2, percentage of inhibition of the control: 1 µM, control solvent only, SD did not exceed 6%
T2 construct: purchased Sigma-Aldrich
T2 sequence (Q06124 1-593): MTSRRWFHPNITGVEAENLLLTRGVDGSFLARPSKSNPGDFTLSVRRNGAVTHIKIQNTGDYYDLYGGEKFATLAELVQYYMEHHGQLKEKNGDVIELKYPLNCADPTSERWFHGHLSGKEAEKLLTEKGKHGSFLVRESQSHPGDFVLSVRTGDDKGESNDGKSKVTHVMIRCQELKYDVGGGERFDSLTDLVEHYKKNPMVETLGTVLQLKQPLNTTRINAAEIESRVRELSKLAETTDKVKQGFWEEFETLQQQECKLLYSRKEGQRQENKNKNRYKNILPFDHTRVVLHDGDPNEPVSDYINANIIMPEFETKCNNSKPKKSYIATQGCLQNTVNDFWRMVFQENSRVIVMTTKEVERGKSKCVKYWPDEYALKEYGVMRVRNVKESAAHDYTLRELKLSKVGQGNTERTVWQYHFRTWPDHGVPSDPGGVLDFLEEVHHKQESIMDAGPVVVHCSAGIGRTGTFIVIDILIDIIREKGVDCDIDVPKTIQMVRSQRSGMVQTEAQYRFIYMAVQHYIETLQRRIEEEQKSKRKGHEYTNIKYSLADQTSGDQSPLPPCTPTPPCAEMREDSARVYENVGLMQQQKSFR
Method: as §1

PTP1B = molecular target: T3, PTP1B (Homo sapiens, UniProt P18031); test: Inhibition of human recombinant tyrosine phosphatase PTP1B (DiFMUP fluorescence); type: biochemical; details: for Inhibition of PTP1B, percentage of inhibition of the control: 1 µM, control solvent only, SD did not exceed 6%; for Log IC50 ± SD PTP1B: logarithm of IC50
T3 construct: purchased Sigma-Aldrich
T3 sequence (P18031 1-435): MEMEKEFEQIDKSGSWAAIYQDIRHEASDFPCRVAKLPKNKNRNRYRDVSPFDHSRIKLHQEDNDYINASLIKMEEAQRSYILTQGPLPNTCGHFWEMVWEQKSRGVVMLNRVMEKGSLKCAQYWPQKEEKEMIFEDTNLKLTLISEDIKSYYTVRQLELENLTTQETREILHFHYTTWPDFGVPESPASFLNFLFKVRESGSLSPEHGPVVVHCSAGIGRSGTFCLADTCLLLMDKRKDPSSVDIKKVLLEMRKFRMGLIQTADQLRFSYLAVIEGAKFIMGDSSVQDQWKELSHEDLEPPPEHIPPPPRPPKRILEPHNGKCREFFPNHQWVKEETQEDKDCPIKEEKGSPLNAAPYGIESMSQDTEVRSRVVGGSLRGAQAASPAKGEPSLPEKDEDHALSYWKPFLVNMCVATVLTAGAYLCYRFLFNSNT
Method: as §1

SHP1 = molecular target: T4, SHP1 (Homo sapiens, UniProt P29350); test: Inhibition of human recombinant tyrosine phosphatase SHP1 (DiFMUP fluorescence); type: biochemical; details: for Inhibition of SHP1, percentage of inhibition of the control: 1 µM, control solvent only, SD did not exceed 6%; for Log IC50 ± SD SHP1: logarithm of IC50
T4 construct: purchased Sigma-Aldrich
T4 sequence (P29350 whole entry): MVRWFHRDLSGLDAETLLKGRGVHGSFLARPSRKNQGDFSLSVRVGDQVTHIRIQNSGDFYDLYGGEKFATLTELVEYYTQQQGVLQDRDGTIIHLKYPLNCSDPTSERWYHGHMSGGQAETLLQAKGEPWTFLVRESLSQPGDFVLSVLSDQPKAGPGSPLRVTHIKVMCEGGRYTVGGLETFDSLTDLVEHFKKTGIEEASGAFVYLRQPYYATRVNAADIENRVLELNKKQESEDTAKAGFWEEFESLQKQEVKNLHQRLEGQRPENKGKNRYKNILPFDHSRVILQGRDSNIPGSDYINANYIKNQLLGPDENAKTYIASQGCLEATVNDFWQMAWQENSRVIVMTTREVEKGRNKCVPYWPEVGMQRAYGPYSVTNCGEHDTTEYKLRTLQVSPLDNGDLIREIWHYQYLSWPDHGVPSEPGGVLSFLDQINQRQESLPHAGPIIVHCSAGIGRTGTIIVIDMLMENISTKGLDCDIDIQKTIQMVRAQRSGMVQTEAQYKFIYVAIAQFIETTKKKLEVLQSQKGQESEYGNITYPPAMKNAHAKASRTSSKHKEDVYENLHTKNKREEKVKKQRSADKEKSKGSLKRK
Method: as §1

adipocytes 3T3-L1 = test: Scintillation proximity assay, transport of [14C]-deoxy-D-glucose into adipocytes 3T3-L1; type: cell-based, mouse; details: 50 µM
Method: Adipocytes 3T3-L1 cell line (ATCC CRL-11605) derived from fibroblasts from mouse embryo tissue were cultured according to standard protocol in DMEM medium supplemented with 10% bovine calf serum, 100 IU/mL penicillin, and […] streptomycin at 37 °C in 5% CO2. Cells were seeded in 96-well poly-D-lysine-coated plates and cultured to reach confluency.
(§2) Scintillation proximity assay (SPA) is a method to measure the real-time accumulation of radiolabeled substrates by adherent cells with no filtration needed. Radioactivity concentrated closer to the scintillator embedded in the plastic bottom of each well provides a stronger signal than the radiolabeled substrate in the culture medium. Uptake of radiolabeled 2-deoxy-D-[U-14C]-glucose was conducted based on previous descriptions.
Adipocytes were washed and the medium was changed to the basal medium. After 24 h incubation, the tested complexes were added. After 2 h incubation at 37 °C in 5% CO2, the medium was changed to DMEM medium without glucose, with 0.1% BSA free from fatty acid, […] L-glutamine, and […] pyruvate. The tested complexes were added again, and further incubation for 4 h was conducted.
(§3) For cells proceeded as above, 2-deoxy-D-[U-14C]-glucose (250–350 mCi/mmol, NEC720A, PerkinElmer) solution in KRB with a total activity of 0.03 mCi was added to each well. […] Non-specific radioactivity was subtracted from each result (cpm). Two independent experiments with triplicates were conducted.

PP2A = PP2A (Homo sapiens, UniProt P67775); test: Inhibition of human recombinant non-tyrosine phosphatase PP2A (DiFMUP); type: biochemical
Sequence of PP2A (P67775 whole entry): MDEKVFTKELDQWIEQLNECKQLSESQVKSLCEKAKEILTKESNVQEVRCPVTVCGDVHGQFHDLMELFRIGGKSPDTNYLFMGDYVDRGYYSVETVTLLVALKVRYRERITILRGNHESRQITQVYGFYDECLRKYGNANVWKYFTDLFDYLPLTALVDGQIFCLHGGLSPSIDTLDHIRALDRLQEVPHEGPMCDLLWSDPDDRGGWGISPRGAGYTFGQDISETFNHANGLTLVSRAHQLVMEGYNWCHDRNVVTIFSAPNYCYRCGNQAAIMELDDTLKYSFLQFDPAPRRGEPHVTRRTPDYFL
Method: (§4) For the inhibition assay of non-tyrosine phosphatases, human recombinant proteins were used (Sigma-Aldrich). The reactions were performed in black opaque 384-well microplates (PerkinElmer). To the solution of the tested complexes, an equal volume of a test solution of phosphatase was added. CDC25A were diluted in reaction buffer to the final concentration of 400 ng/mL as for tyrosine phosphatases (described in the section above), and PPA2 (final 0.5 U/mL) was diluted in 50 mM Tris-HCl, 0.05% Tween-20, and 125 µg/mL protease-free bovine serum albumin (pH 7.0). These solutions were dispensed using an automated injector. After 10 min, a solution of phosphate 6,8-difluoro-4-methyl (DiFMUP; Thermo Fisher Scientific) was added for the PPA2 sample until the final concentration 0.1 mM. For CDC25A samples, 3-O-methylfluorescein phosphate for the final concentration of 0.2 mM was added. Samples were incubated for 180 min at 23 °C, and then the measurements of fluorescence intensity (excitation 355 and emission 560 nm) were performed on a multifunctional plate reader POLARstar Omega (BMG Labtech). Assays were performed in triplicate. The results were expressed as percent of inhibition of untreated control (enzyme with vehicle solvent only).

myocytes C2C12 [1] = test: Viability of myocytes C2C12 after 24 h incubation (resazurin-based reagent); details: 50 µM
Method: Simultaneously with glucose consumption tests, the viability of myocytes C2C12 was examined due to their prolonged 24 h incubation with vanadium complexes.
Prolonged incubation of the cells with vanadium complexes, as was the case during the study of the effect on glucose consumption, more closely corresponds to the actual conditions of clinical use, also allowing for the identification of possible cytotoxic effects. […] A Resazurin-based reagent is reduced proportionally to the metabolic activity of cells as a result of the transference of electrons from NADPH+H^+, the amount of which strictly depends on glucose metabolism.

CDC25A = molecular target: T5, CDC25A (Homo sapiens, UniProt P30304); test: Inhibition of human recombinant non-tyrosine phosphatase CDC25A (3-O-methylfluorescein phosphate); type: biochemical
T5 construct: purchased Sigma-Aldrich
T5 sequence (P30304 1-524): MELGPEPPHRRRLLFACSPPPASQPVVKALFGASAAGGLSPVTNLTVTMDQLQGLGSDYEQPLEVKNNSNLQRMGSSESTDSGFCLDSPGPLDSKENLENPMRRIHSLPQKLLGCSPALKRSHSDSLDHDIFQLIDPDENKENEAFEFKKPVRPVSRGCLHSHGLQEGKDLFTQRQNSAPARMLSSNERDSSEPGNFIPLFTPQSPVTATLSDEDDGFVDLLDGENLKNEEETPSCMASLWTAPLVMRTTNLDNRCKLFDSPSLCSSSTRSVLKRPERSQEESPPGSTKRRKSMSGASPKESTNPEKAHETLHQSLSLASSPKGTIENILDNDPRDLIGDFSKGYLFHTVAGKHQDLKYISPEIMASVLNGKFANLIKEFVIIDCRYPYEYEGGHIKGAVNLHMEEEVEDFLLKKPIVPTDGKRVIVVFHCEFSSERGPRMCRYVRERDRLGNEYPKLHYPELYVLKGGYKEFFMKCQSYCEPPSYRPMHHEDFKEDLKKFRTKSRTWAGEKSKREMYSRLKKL
Method: as §4

myocytes C2C12 [2] = test: Scintillation proximity assay, transport of [14C]-deoxy-D-glucose into myocytes C2C12; type: cell-based, mouse; details: 50 µM; control solvent only
Method: The myocyte C2C12 cell line (ATCC CRL-1772), a subclone of myoblasts from mouse muscles, was cultured according to standard protocol in DMEM supplemented with 10% fetal calf serum, 100 IU/ml penicillin, and […] streptomycin at 37 °C in 5% CO2. Cells were pleated on a 96-well microplate and after reach confluence were differentiated in medium with 2% horse serum. Differentiation medium was changed every 72 h.
as §2
After 24 h incubation, the tested complexes were added. After 2 h incubation at 37 °C in 5% CO2, the medium was changed to low-glucose medium (1000 mg/L), and the tested complexes were added again, with further incubation for 4 h being conducted.
as §3

| SMILES | Inhibition of LAR, percentage of inhibition of the control (LAR) [%] | Inhibition of SHP2, percentage of inhibition of the control (SHP2) [%] | Inhibition of PTP1B, percentage of inhibition of the control (PTP1B) [%] | Inhibition of SHP1, percentage of inhibition of the control (SHP1) [%] | Transport of [14C]-deoxy-D-glucose into 3T3-L1 adipocytes, % of control (adipocytes 3T3-L1) | Inhibition of PP2A, percentage inhibition of control ± SD (PP2A; 1 µM) [%] | Inhibition of PP2A, percentage inhibition of control ± SD (PP2A; 10 µM) [%] | IC50 (LAR) [nM] | Log IC50 ± SD PTP1B (PTP1B) | IC50 (PTP1B; read-out: IC50 PTP1B) [nM] | IC50 (PTP1B; read-out: IC50 for PTP1B) [nM] | Log IC50 ± SD SHP1 (SHP1) | Cell viability of myocytes C2C12, % of the control (myocytes C2C12 [1]) [%] | Inhibition of CDC25A, percentage inhibition of control ± SD (CDC25A; 1 µM) [%] | Inhibition of CDC25A, percentage inhibition of control ± SD (CDC25A; 10 µM) [%] | IC50 (SHP2) [nM] | IC50 (SHP1) [nM] | Transport of [14C]-deoxy-D-glucose into C2C12 myocytes, % of the control (myocytes C2C12 [2]) |
| --- | --- | --- | --- | --- | --- | --- | --- | --- | --- | --- | --- | --- | --- | --- | --- | --- | --- | --- |
| O.[O]=[V]1[O]C(c2ccccc2O)=NN=Cc2cc(Br)ccc2[O]1.c1cnc2c(c1)ccc1cccnc12 [VC013, [VO(L6)(phen)]⋅H2O] | 66 | 74 | 60 | 67 | statistically significant activity |  |  |  |  |  |  |  |  |  |  |  |  |  |
| CC(CC(=S)Nc1ccccc1)=NC(Cc1c[nH]c2ccccc12)C(=O)[O][V](=[O])([Cl])[Cl] (centres unmarked) [VC054, [VOCl2(L1)]·1.5Et2O ·6.5HCl] | 67 | 87 | 78 | 84 |  | 41 ± 15 | 75 ± 7 | 112 | −6.85 ± 0.01 | 141 | 140 | −7.56 ± 0.02 | 84 ± 8 | 51 ± 2 | 65 ± 3 |  |  |  |
| CC(CC(=S)Nc1ccccc1)=NC(Cc1ccccc1)C(=O)[O][V](=[O])([Cl])[Cl] (centres unmarked) [VC059, [VOCl2(L2)]·0.5Et2O·1.5HCl] | 71 | 87 | 79 | 82 |  | 44 ± 1 | 54 ± 9 | 76 | −6.97 ± 0.01 | 107 | 110 | −7.59 ± 0.04 | 86 ± 6 | 55 ± 3 | 68 ± 3 | 13 | 26 |  |
| CC(CC(=S)Nc1ccccc1)=NC(CC(C)C)C(=O)[O][V](=[O])([Cl])[Cl] (centres unmarked) [VC070, [VOCl2(L3)]·0.5Et2O·3HCl] | 69 | 88 | 79 | 84 | 159 % of control |  |  |  |  |  |  |  |  |  |  |  |  | 158 ± 10 % of control |
